Series [1] in a line: Fluorescence-based competition assay using FluoZin-3 (compound-Zn2+ dissociation constant). The following applies: FluoZin-3 competition, PBS pH 7.4, room temperature; read-out: Compound-Zn^2+ KD. In kind it is binding. The protocol:
The dissociation constant (Kd) of zinc to zinc-attenuating compounds was determined at room temperature using FluoZin-3 (F24194; […] Testing buffer consisted of PBS (pH 7.4) with 200 nM ZnCl2 and 500 nM FluoZin-3. In a microtiter plate, 98 μl of testing buffer was mixed with 2 μl of compound at a range of concentrations to determine the half-maximal inhibitory concentration (IC50). Testing plates were incubated for 2 min before being read at an excitation wavelength of 485 nm and an emission wavelength of 516 nm with a Fluoroskan Ascent microplate fluorometer (Thermo Fisher Scientific).

The subject of series [2] is C. albicans BWP17. Description: Zinbo-5 assay (intracellular zinc). In kind it is cell-based, Candida albicans. The following applies: 9 μg/ml ZAC989, 7 μg/ml ZAC307 (25 μM), 15 μg/ml EDTA, 1.3 μg/ml TPEN; 1, 8 or 24 h. The protocol:
C. albicans BWP17 was grown overnight in YPD medium at 30°C and 150 rpm. The cells were pelleted, washed in PBS buffer (D8537; Sigma) 3 times, and resuspended to an OD600 of 2.0. Two microliters of compound in DMSO was mixed with 100 μl of cell suspension and incubated statically for 1, 8, or 24 h at 30°C in a 96-well black plate. Thirty minutes before the end of the incubation period, 100 μl of 10 μM Zinbo-5 (sc-222425; Santa Cruz Biotechnology) in PBS buffer was added. […] The plate was then read on a plate reader (FLUOstar Optima; BMG Lab Technologies) with excitation at 355 nm and emission at 485 nm. The decrease in Zinbo-5 fluorescence was calculated relative to the untreated DMSO control.

Series [3] can be described thus: Human hepatocyte (HepG2) proliferation assay. In kind it is cell-based. Conditions: human, HepG2 cells, XTT; for EC50 at 24 h: 24 h exposure; for EC50 at 72 h: 72 h exposure. The protocol:
In each well of a 96-well tissue culture plate (GR-655180; Grenier), 10,000 human hepatocytes (HepG2) (85011430; […] Sigma]) supplemented with 2 mM L-[…]-020-1B; Biological Industries), 1% nonessential amino acids (XC-[…]/100; Biosera), and 10% fetal bovine serum (BI-04-007-1A; Biological Industries), and plates were incubated overnight at 37°C and 5% CO2. […] The plate was incubated for a further 24 h or 72 h at 37°C and 5% CO2. The medium was then replaced with 100 μl of freshly prepared 2,3-bis-(2-methoxy-4-nitro-5-sulfophenyl)-2H-tetrazolium-5-carboxanilide salt (XTT) sodium salt solution (0.5 mg/ml of XTT; […]; Sigma) in RPMI 1640 ([…]; Sigma-Aldrich) with 3.83 μg/ml of phenazine methosulfate ([…]; Sigma-Aldrich) and incubated 2 to 3 h at 37°C and 5% CO2 ([43]). The color reaction was measured on Victor X5 plate reader (Perkin-Elmer) at OD450, and the half-maximal effective concentration (EC50) was calculated. Tamoxifen (85256; Sigma) was used as a positive-control compound.

The subject of series [4] is ZafA target genes. Description: RT-qPCR of ZafA target genes and genes not regulated by ZafA. In kind it is cell-based, Aspergillus fumigatus. The following applies: zinc-limiting conditions, 2 h; for expression of the ZafA target genes: 21 μg/ml ZAC307, 27 μg/ml ZAC989, 146 μg/ml EDTA, 10.6 μg/ml TPEN; for expression levels of the genes not regulated by ZafA: 21 μg/ml ZAC307, 27 μg/ml ZAC989. The protocol:
A total of 1.5 × 10^6 conidia of the wild-type strain (AF14) were inoculated into 20 ml of 0.7× sRPMI, 0.05% Tween 20, and 1.2% ethanol dispensed into 100-ml culture flasks pretreated with an overnight wash in 2 mM EDTA (pH 8.0) to minimize the presence of metal traces, followed by a thorough washing with ultrapure Milli-Q water. The flasks were subsequently sterilized in an oven at 180°C. The cultures were incubated for 20 h at 37°C and 200 rpm before the following were added: (i) pure ethanol to a final concentration of 1.2% (vol/vol) (as a reference for the transcription profiles of all genes under zinc-limiting conditions), (ii) 1.2% ethanol plus a solution of ZnSO4 to a final concentration 20 μM zinc (as a reference for the transcription profiles of all genes under zinc-replete conditions following the zinc shift), (iii) 1.2% ethanol plus a solution of EDTA to a final concentration of 500 μM, (iv) 1.2% ethanol plus a solution of TPEN to a final concentration of 10.6 μg/ml, and (v) a 5 mM solution of each test compound (ZAC307 or ZAC989) dissolved in 80% ethanol to a final concentration of 75 μM and 1.2% ethanol (which correspond to 21 μg/ml and 27 μg/ml, respectively). After compound addition, cultures were incubated for 2 h at 37°C and 200 rpm and mycelia were harvested by filtration through filter paper, washed twice with sterile waterm and snap-frozen in liquid nitrogen. After grinding of the mycelia in the presence of liquid nitrogen, total RNA was extracted using an RNeasy plant minikit (74904; Qiagen) according to the manufacturer's instructions. RNA was eluted in 50 μl of RNase-free water. RNA integrity was verified on 0.8% agarose gels stained with ethidium bromide. RNA was stored at −80°C until use.
Total RNA concentration and quality were determined by UV spectrometry (NanoDrop ND1000 spectrophotometer; Thermo Fisher Scientific), and all samples were brought to a final concentration of 150 ng/μl. Total RNA (1.5 μg) was treated with RQ1 DNase I (M610; Promega) and subsequently assessed by conventional PCR for the complete absence of genomic DNA (gDNA). Subsequently, 1 μg of DNase-treated RNA was reversed transcribed using SuperScript II reverse transcriptase (18064-014; Invitrogen, Thermo Fisher Scientific), with random hexamers (11034731001; Roche Diagnostics) as primers. Prior to qPCRs, cDNA samples were diluted 1:3 in water, except in the case of reactions against the 18S rRNA, for which samples were diluted 1:1,200 in water. qPCRs were performed on a Bio-Rad CFX96 instrument. A typical qPCR mixture (10 μl) contained 13.5 ng of cDNA (32 pg when the qPCR was for 18S rRNA), a specific pair of primers (150 nM final concentration), and the SYBR premix Ex Taq (RR420A; TaKaRa). For all qPCRs, 40 cycles were performed using the following cycling conditions: denaturation at 95°C for 10 s, annealing at 59°C for 20 s, and extension at 72°C for 20 s. The relative expression ratio (rER) was calculated using the threshold cycle (2^−ΔΔCT) method ([42]) using the expression level of the 18S rRNA as an internal reference.

Series [5] has as its system C. albicans. Description: Fungal growth recovery after prolonged exposure (MFC). In kind it is cell-based, Candida albicans. Conditions: for growth recovery after exposure: 5 days of exposure, then compound-free medium (EDTA: during compound incubation, 0.22 to 22 μg/ml).

Values after ≈ are worked out from the molar mass of the structure shown.

The record followed here is PMC5923171, “Novel Zinc-Attenuating Compounds as Potent Broad-Spectrum Antifungal Agents with In Vitro and In Vivo Efficacy” (Antimicrobial Agents and Chemotherapy, 2018).

Broadly, the Kd is a measure of binding affinity in units of concentration. A word on the EC50: it is the concentration needed to bring the measured effect to its halfway point. Low values mean higher potency in that assay, high ones lower potency in that assay. Take `O=C(O)CN(CCN(CC(=O)O)CC(=O)O)CC(=O)O` [EDTA]: the dissociation constant (Kd) in series [1] is less than 10 nM. Besides, the Zinbo-5 fluorescence result in series [2] is on record as “did not reduce the Zinbo-5 fluorescence”. Besides, in series [3], the EC50 at 24 h is greater than 28 µg/mL and the concentration for a half-maximal effect (EC50) at 72 h is greater than 29 µg/mL. The “expression of the ZafA target genes” value in series [4] was “upregulation of the most direct ZafA target genes”. Moreover, in series [5], the “growth recovery after exposure” value is listed as “resumed visible growth after 48 h of compound incubation”.
`c1ccc(CN(CCN(Cc2ccccn2)Cc2ccccn2)Cc2ccccn2)nc1` [TPEN, N,N,N’,N’-tetrakis(2-pyridylmethyl)-ethylenediamine]: the Kd in series [1] is less than 10 nM. The Zinbo-5 fluorescence entry in series [2] was “time-dependent decrease in Zinbo-5 fluorescence”. In series [3], this compound gave an EC50 at 24 h of 1.6 ± 0.2 µg/mL (≈ 3.77 µM) and an EC50 at 72 h of 1.4 ± 0.8 µg/mL (≈ 3.3 µM). The “expression of the ZafA target genes” value in series [4] is “higher expression of the ZafA target genes than attained with EDTA”. For the same compound, the “growth recovery after exposure” value in series [5] is given as “poor recovery”. For the same compound, in series [5] (prolonged exposure), the “concentration above which exposed cells showed poor recovery” value is reported as “above 2 μg/ml”.
Regarding `CN(C)c1cc(-n2nc(-c3ccccc3)cc2O)ncn1` [ZAC307, 2-[6-(dimethylamino)pyrimidin-4-yl]-5-phenyl-pyrazol-3-ol], in series [1], the Kd is 71 nM. In series [2], the Zinbo-5 fluorescence result is “decreased the Zinbo-5 fluorescence after only 1 h of incubation”. In addition, in series [3], the EC50 at 24 h is greater than 28 µg/mL and the EC50 at 72 h is 13.2 ± 0.8 µg/mL (≈ 46.9 µM). Also, in series [4], the “expression levels of the genes not regulated by ZafA” value is reported as “reduced expression levels for most of the investigated genes that were not regulated by ZafA” and the “expression of the ZafA target genes” value is given as “inhibited the expression of the ZafA target genes”. The “growth recovery after exposure” value in series [5] is recorded as “resume normal growth”.
In the case of `Cc1cc(O)n(-c2cc(N3CC[C@H](Oc4cnccc4C#N)C3)ncn2)n1` [ZAC989, 3-[(3S)-1-[6-(5-hydroxy-3-methyl-pyrazol-1-yl)pyrimidin-4-yl]pyrrolidin-3-yl]oxy-pyridine-4-carbonitrile], the Kd in series [1] was found to be 13 nM. In addition, the Zinbo-5 fluorescence result in series [2] was “time-dependent decrease in Zinbo-5 fluorescence”. In series [3], the concentration giving a half-maximal response (EC50) at 24 h was greater than 28 µg/mL and the concentration giving a half-maximal response (EC50) at 72 h stood at 6.9 ± 0.7 µg/mL (≈ 19 µM). Further, in series [4], the “expression levels of the genes not regulated by ZafA” value was “did not have a noticeable effect” and the “expression of the ZafA target genes” value is reported as “inhibited the expression of the ZafA target genes”. Further, the “growth recovery after exposure” value in series [5] is given as “resume normal growth”.
